In US4136188A, “Treatment of diabetes with 2-substituted-1,3-diazacyclic compounds” (priority 1976, dated 1979):

Legend:
blood glucose [1] = assay: Hypoglycemic activity: dose-effect relationship in normal rats; assay type: in vivo, male Wistar rats
Description: Five male Wistar rats weighing about 170g were used at each dosage level. […] 2, 3 and 5 hours after administration, a blood sample was taken from the tail vein of the rat and assayed for glucose by the glucose oxidase method.

blood glucose [2] = assay: Glucose tolerance test in normal rats; assay type: in vivo, male Wistar rats
Description: Five male Wistar rats weighing about 200g were used at each dose level. An aqueous solution or suspension of a test compound was orally administered by means of a stomach tube to each rat which had not been fed for 24 hours before administration. […] Blood samples were taken from the tail vein just before and 15, 30, 60 and 90 minutes after glucose loading, and were assayed for blood glucose. The glucose tolerance of the rats was estimated by the increase in blood glucose during the 90 minutes after glucose loading [formula]

blood glucose [3] = assay: Glucose tolerance test in streptozotocin-induced mildly diabetic rats; assay type: in vivo, male Wistar rats (streptozotocin diabetic)
Description: An aqueous solution or suspension of a test compound was orally administered to male Wistar rats which had not been fed for 24 hours prior to oral administration and which had been rendered diabetic for about 2 months by a single intravenous injection of streptozotocin (20 mg/kg body weight). Control diabetic rats received water. Unfed (fasted) and fed blood glucose levels of the rats were 89 ± 1~103 ± 4 mg/dl and 123 ± 2~189 ± 11 mg/dl, respectively. […] Blood samples were taken from the tail vein just before and 15, 30, 60 and 90 minutes after glucose loading, and were assayed for blood glucose. The glucose tolerance of the rats was estimated by the increase in blood glucose during the 90 minutes after glucose loading, i.e., [formula]

[4] = system: immunoreactive insulin (IRI); assay: Insulin releasing action; assay type: in vivo, male Wistar rat
Description: A saline solution containing a test compound was injected into the femoral vein of a normal male Wistar rat weighing about 200 g under pentobarbital anesthesia (5 rats/group). Control rats received a saline injection. Blood samples were taken from the tail vein before and 10, 20, 30 and 40 minutes after injection of the test compound, and were assayed for immunoreactive insulin (IRI) by the method of C. R. Morgan et al (Diabetes, 12, 115.1963).

platelet aggregation = assay: Inhibitory action on collagen-induced platelet aggregation in platelet rich plasma; assay type: cell-based; details: concentration giving 50% inhibition of reaction rate of collagen-induced platelet aggregation, rat platelet rich plasma, 30° C; read-out: Inhibitory Action ID50
Description: Platelet rich plasma was prepared by centrifugation (1000 rpm, 5 min.) of fresh citrated rat blood. Fifty microliters of a solution containing a test compound at various concentrations were added to 0.4 ml of the platelet rich plasma, and the mixture was stirred for 1 minute at 1100 rpm and 30° C. Then, 50 μl of a collagen suspension was added to initiate platelet aggregation, which was measured turbidometrically according to G.V.R. Born (Nature, 194, 927, 1962). The ID50 values represent the concentration (mM) of the compound giving a 50% inhibition of the reaction rate of […] platelet aggregation.

serum lactate = assay: Effect on serum lactate level; assay type: in vivo, male Wister rat; details: 200 mg/kg daily oral for 4 days; for Percent of Initial Serum Lactate, 24 hrs: just before the 2nd dosing; for Percent of Initial Serum Lactate, 76 hrs: 3 hours after the last dosing
Description: An aqueous solution or suspension of a test compound was orally administered to a normal male Wister rat weighing about 200 g at a daily dose of 200 mg/kg body weight for 4 days (5 rats/group). Blood samples were taken consecutively from the tail vein, and were assayed for serum lactate by the method of Hans-Jurgens Hohorst (Methods of Enzymatic Analysis, ed. by Hans Ulrich Bergmayer, Academic Press Inc., New York, 1965).

blood glucose [5] = assay: Long-term administration in streptozotocin-induced diabetic rats: fed blood glucose; assay type: in vivo, male Wistar rats (streptozotocin diabetic); details: 485 ± 18 at start, control 415 ± 27
Description: (§1) Diabetes was induced in male Wistar rats weighing about 170 g by a single intraperitoneal (60 mg/kg body weight) or intravenous (35 mg/kg) injection of streptozotocin. […] These rats were treated with Compound A, tolubutamide or phenformin at a daily oral dose of 25, 50 or 10 mg/kg body weight, respectively. Control diabetic rats received no treatment. The treatment was started 1 month after streptozotocin injection and continued for 4 (tolubutamide and phenformin) or 5 months (Compound A).
Fed blood glucose levels of the rats were 485 ± 18 mg/dl at the start of the treatment and 415 ± 27 (control group), 423 ± 17 (Compound A group), 447 ± 15 (tolubutamide group) and 425 ± 29 mg/dl (phenformin group) at the end of the experiment.

serum lipids = assay: Long-term administration in streptozotocin-induced diabetic rats: serum lipids; assay type: in vivo, male Wistar rats (streptozotocin diabetic); details: for hyperlipidemia / serum triglyceride tendency (in words): long-term administration, diabetic rats
Description: as §1
(§2) At the end of the experiment, the rats were sacrificed for histological examination of the kidneys and the liver and for determination of serum lipids.

[6] = Acute toxicity in rats by oral administration; details: rat, in vivo, male Donryu rats, mortality on the 7th day, Litchfield and Wilcoxon
Description: Acute Toxicity tests were carried out in rats by oral administration. Each LD50 was calculated from the mortality percentage on the 7th day according to the method of Litchfield and Wilcoxon. Ten male rats of the Donryu strain were used at each dose level.

kidneys = assay: Long-term administration in streptozotocin-induced diabetic rats: histological examination of the kidneys; assay type: in vivo, male Wistar rats (streptozotocin diabetic)
Description: as §1, §2

[7] = 25 mg/kg oral, fasted normal rats
[8] = 10 mg/kg oral, 1 hour prior to glucose loading
[9] = 10 mg/kg oral, 1 hour prior to glucose loading (1 g/kg i.p.), control 121 ± 14 (A), 127 ± 8 (B, C)
[10] = 10 mg/kg oral, 1 hour prior to glucose loading, control 265 ± 21 (A), 206 ± 18 (B, C)
[11] = 25 mg/kg daily, 5 months, 7 rats
[12] = 25 mg/kg i.v., control 50 ± 8, 0-40 minutes
[13] = 10 mg/kg daily, 4 months, 7 rats, * = significant, p < 0.05 vs. diabetic control
[14] = 20 mg/kg oral, given 30 minutes prior to glucose loading
[15] = 50 mg/kg daily, 4 months, 8 rats

## 2-benzhydryliminoimidazolidine hydrochloride [Example 3]
Blood glucose [1]; [7]
  Decrease in blood glucose (% based on the control), 3 hrs: 39%
  Decrease in blood glucose (% based on the control), 5 hrs: 39%

## CN1CCNC1=NC(c1ccccc1)c1ccccc1 [Compound A, 1-methyl-2-benzhydryliminoimidazolidine]
Blood glucose [2]; [8]
  Increase in glucose tolerance: 52.1%
Blood glucose [2]; [9]
  Increase in blood glucose during the 90 minutes after glucose loading, test compound (head [drawing 13]): 58 ± 4
Blood glucose [3]; [8]
  Improvement of glucose tolerance: 43.0%
Blood glucose [3]; [10]
  Increase in blood glucose during the 90 minutes after glucose loading, test compound (head [drawing 15]): 151 ± 43
[4]; 25 mg/kg i.v., second column (control 42 ± 19), 0-40 minutes
  Insulin Released [ΣΔIRI (0-40)]: 208 ± 21 μunit/ml serum
Platelet aggregation
  IC50: 320 µM
Serum lactate
  Percent of Initial Serum Lactate, 24 hrs: 114.9%
  Percent of Initial Serum Lactate, 76 hrs: 94.6%
Blood glucose [5]; 25 mg/kg daily oral, 5 months
  Fed blood glucose level at the end of the experiment: 423 ± 17 mg/dL
Serum lipids; [11]
  Serum cholesterol: 78.7 % of control
  Serum free fatty acid: 86.1 % of control
Serum lipids; 25 mg/kg daily, 5 months, 7 rats, * = significant, p < 0.05 vs. diabetic control
  Serum triglyceride: 53.0 % of control
[6]
  LD50 at 168 h: 660 mg/kg

## CN1CCN(C(=O)c2cccs2)C1=NC(c1ccccc1)c1ccccc1 [Compound E, 1-methyl-2-benzhydrylimino-3-thienoylimidazolidine]
Platelet aggregation
  IC50: 130 µM
[6]
  LD50 at 168 h: > 1000 mg/kg

## CN1CCCC1=NC(c1ccccc1)c1ccccc1 [Compound Q, Benzhydryl Lactamimide, reference compound]
[4]; [12]
  Insulin Released [ΣΔIRI (0-40)]: 198 ± 16 μunit/ml serum

## CN1CCN(C(=O)c2ccccc2)C1=NC(c1ccccc1)c1ccccc1 [Compound D, 1-methyl-2-benzhydrylimino-3-benzoylimidazolidine]
Platelet aggregation
  IC50: 270 µM
[6]
  LD50 at 168 h: > 1000 mg/kg

## [H]/N=C(/N)N/C(=N/[H])NCCc1ccccc1 [Phenformin, phenformin, reference compound]
Blood glucose [1]; Dose = 100 mg/kg oral
  Decrease in blood glucose (% based on the control), 2 hrs: 10%
  Decrease in blood glucose (% based on the control), 3 hrs: 15%
  Decrease in blood glucose (% based on the control), 5 hrs: 15%
Serum lactate
  Percent of Initial Serum Lactate, 24 hrs: 196.6%
  Percent of Initial Serum Lactate, 76 hrs: 283.6%
Blood glucose [5]; 10 mg/kg daily oral, 4 months
  Fed blood glucose level at the end of the experiment: 425 ± 29 mg/dL
Serum lipids; [13]
  Serum cholesterol: 180.0 % of control
  Serum free fatty acid: 157.0 % of control
  Serum triglyceride: 225.7 % of control
Serum lipids
  hyperlipidemia / serum triglyceride tendency (in words): increased tendency of hyperlipidemia

## CN1CCN(C(=O)c2cccnc2)C1=NC(c1ccccc1)c1ccccc1 [Compound F, 1-methyl-2-benzhydrylimino-3-nicotinoyl-imidazolidine]
Platelet aggregation
  IC50: 480 µM

## CN1CCN=C1CC(c1ccccc1)c1ccccc1 [Compound C, 1-methyl-2-(2,2-diphenylethyl)-2-imidazoline]
Blood glucose [2]; [8]
  Increase in glucose tolerance: 26.0%
Blood glucose [2]; [9]
  Increase in blood glucose during the 90 minutes after glucose loading, test compound (head [drawing 13]): 94 ± 8
Blood glucose [3]; [8]
  Improvement of glucose tolerance: 17.5%
Blood glucose [3]; [10]
  Increase in blood glucose during the 90 minutes after glucose loading, test compound (head [drawing 15]): 170 ± 15
[4]; [12]
  Insulin Released [ΣΔIRI (0-40)]: 214 ± 17 μunit/ml serum
Platelet aggregation
  IC50: 120 µM

## 1-methyl-2-benzhydryliminoimidazolidine.hydroiodide [Example 4]
Blood glucose [1]; [7]
  Decrease in blood glucose (% based on the control), 3 hrs: 32%
  Decrease in blood glucose (% based on the control), 5 hrs: 19%

## c1ccc(C(CC2=NCCN2)c2ccccc2)cc1 [Compound B, 2-(2,2-diphenylethyl)-2-imidazoline]
Blood glucose [2]; [8]
  Increase in glucose tolerance: 96.9%
Blood glucose [2]; [9]
  Increase in blood glucose during the 90 minutes after glucose loading, test compound (head [drawing 13]): 4 ± 12
Blood glucose [3]; [8]
  Improvement of glucose tolerance: 74.8%
Blood glucose [3]; [10]
  Increase in blood glucose during the 90 minutes after glucose loading, test compound (head [drawing 15]): 52 ± 12
[4]; [12]
  Insulin Released [ΣΔIRI (0-40)]: 250 ± 13 μunit/ml serum
Platelet aggregation
  IC50: 50 µM
Serum lactate
  Percent of Initial Serum Lactate, 24 hrs: 139.6%
  Percent of Initial Serum Lactate, 76 hrs: 113.3%
[6]
  LD50 at 168 h: 562 mg/kg

## CCCCNC(=O)NS(=O)(=O)c1ccc(C)cc1 [Tolubutamide, tolubutamide, reference compound]
Blood glucose [1]; [7]
  Decrease in blood glucose (% based on the control), 2 hrs: 20%
  Decrease in blood glucose (% based on the control), 3 hrs: 24%
  Decrease in blood glucose (% based on the control), 5 hrs: 20%
Blood glucose [2]; [14]
  Increase in glucose tolerance: 31.4%
Blood glucose [2]; 20 mg/kg oral, given 30 minutes prior to glucose loading (1 g/kg i.p.), control 121 ± 14
  Increase in blood glucose during the 90 minutes after glucose loading, test compound (head [drawing 13]): 83 ± 14
Blood glucose [3]; [14]
  Improvement of glucose tolerance: 32.6%
Blood glucose [3]; 20 mg/kg oral, given 30 minutes prior to glucose loading, 3 rats, control 265 ± 21
  Increase in blood glucose during the 90 minutes after glucose loading, test compound (head [drawing 15]): 179 ± 23
[4]; 50 mg/kg i.v., control 50 ± 8, 0-40 minutes
  Insulin Released [ΣΔIRI (0-40)]: 189 ± 26 μunit/ml serum
[4]; 50 mg/kg i.v., second column (control 42 ± 19), 0-40 minutes
  Insulin Released [ΣΔIRI (0-40)]: 141 ± 14 μunit/ml serum
Blood glucose [5]; 50 mg/kg daily oral, 4 months
  Fed blood glucose level at the end of the experiment: 447 ± 15 mg/dL
Serum lipids; [15]
  Serum free fatty acid: 133.0 % of control
  Serum triglyceride: 186.8 % of control
Serum lipids; 50 mg/kg daily, 4 months, 8 rats, * = significant, p < 0.05 vs. diabetic control
  Serum cholesterol: 150.0 % of control
Serum lipids
  hyperlipidemia / serum triglyceride tendency (in words): increased tendency of hyperlipidemia
kidneys
  kidney histology: diffuse glomerulosclerosis and tubular alterations (in words): to some extent, deteriorated

## CN1CCCC1=NC(c1ccccc1)c1ccccc1 [Compound Z, reference compound]
Serum lactate
  Percent of Initial Serum Lactate, 24 hrs: 152.1%
  Percent of Initial Serum Lactate, 76 hrs: 218.8%
